Patent US12018011B2, “Macrocyclic compounds and compositions, and methods of preparing and using the same” (Kura Oncology, Inc., priority 2021, dated 2024)

Target: T1, Recombinant human farnesyl transferase (FTase) (Homo sapiens, UniProt P49356)
T1 construct: purchased Crelux (Martinsried, Germany)
Assay: FTase fluorescence assay (farnesylation of dansyl-GCVLS peptide)
Format: biochemical
Conditions: recombinant human FTase 2.5 nM, Dansyl-GCVLS 85 nM, FPP 30 nM, 30° C., 50 minutes
Text: T24/83 cell line was purchased from the European Collection of Authenticated Cell Cultures (Salisbury, UK). Recombinant human farnesyl transferase (FTase) and geranylgeranyl transferase type-1 (GGTase) were obtained from Crelux (Martinsried, Germany). Dansyl labelled GCVLS peptide was purchased from Bachem (Torrance, CA), and Dansyl labelled GCVLL peptide was purchased from Bio Synthesis (Lewisville, TX). Farnesyl Pyrophosphate (FPP) and Geranylgeranyl pyrophosphate (GGPP) were purchased from Cayman (Ann Arbor, MI).
Specific biochemical activity of the compounds disclosed herein as FTase inhibitors was determined by measuring the ability of the compounds to block the farnesylation by recombinant FTase of fluorescent (i.e., dansyl-labeled) test substrates derived from the CAAX box of farnesylated proteins, such as the peptide GCVLS.
The IC50 value of the compounds disclosed herein as inhibitors of Ftase and/or GGTase, was determined by measuring the concentration (provided in nM) necessary to achieve inhibition of enzyme activity by 50% (IC50). […] Compounds having a low IC50 value against FTase, for example an IC50 (FTase)<100 nM, such as an IC50 (FTase)<10 nM, are preferred. Compounds having a low IC50 value against FTase and a high IC50 value against GGTase, for example an IC50 (FTase)<100 nM, such as an IC50 (FTase)<10 nM, and an IC50 (GGTase)>100 nM, are potent and selective inhibitors of FTase, and are particularly preferred.
The inhibition activities of the compounds disclosed herein against Ftase and GGTase were measured in the respective fluorescence assays as follows:
For the FTase assay, recombinant human FTase (2.5 nM), Dansyl labelled GCVLS peptide (85 nM), FPP (30 nM) and inhibitor were mixed in assay buffer (50 mM Tris, pH 7.5, 10 mM magnesium chloride, 10 μM zinc chloride, 0.08% CHAPS, 5 mM dithiothreitol) and incubated in a total volume of 20 μL at 30° C. for 50 minutes.
For both the FTase assay and GGTase assay, fluorescence intensity was detected (excitation at 340 nm and emission at 486 nm) using EnVision (PerkinElmer; Waltham, MA), IC50 determinations were performed using a sigmoidal dose-response model with Xlfit software (IDBS, Inc.; Boston, MA), and tipifarnib was used as a positive control. All the assay plates for each assay passed the QC criteria (S/B, Z factor).

SMILES | IC50
Cn1cncc1[C@]1(N)c2ccc(Cl)c(c2)CCc2cccc(c2)-c2cc(=O)n(C)c3ccc1cc23 (racemic) [(R)-4, (R)-3-amino-4^4-chloro-2^1-methyl-3-(1-methyl-1H-imidazol-5-yl)-2^1,2^2-dihydro-2(4,6)-quinolina-1,4(1,3)-dibenzenacyclohexaphan-2^2-one] | > 100 nM
Cn1cncc1[C@]1(O)c2ccc(Cl)c(c2)OCc2cccc(c2)-c2cc(=O)n(C)c3ccc1cc23 (racemic) [(R)-14, (R)-4^4-chloro-3-hydroxy-2^1-methyl-3-(1-methyl-1H-imidazol-5-yl)-2^1,2^2-dihydro-5-oxa-2(4,6)-quinolina-1,4(1,3)-dibenzenacyclohexaphan-2^2-one] | > 100 nM
Cn1cncc1[C@]1(N)c2ccc(Cl)c(c2)OCc2cccc(c2)-c2cc(=O)n(C)c3ccc1cc23 (racemic) [(R)-15, (R)-3-amino-4^4-chloro-2^1-methyl-3-(1-methyl-1H-imidazol-5-yl)-2^1,2^2-dihydro-5-oxa-2(4,6)-quinolina-1,4(1,3)-dibenzenacyclohexaphan-2^2-one] | > 100 nM
Cn1cncc1[C@]1(O)c2ccc(C#N)c(c2)OCc2cccc(c2)-c2cc(=O)n(C)c3ccc1cc23 (racemic) [(R)-18, (R)-3-hydroxy-2^1-methyl-3-(1-methyl-1H-imidazol-5-yl)-2^2-oxo-2^1,2^2-dihydro-5-oxa-2(4,6)-quinolina-1,4(1,3)-dibenzenacyclohexaphane-4^4-carbonitrile] | > 100 nM
Cn1cncc1[C@]1(N)c2ccc(C#N)c(c2)OCc2cccc(c2)-c2cc(=O)n(C)c3ccc1cc23 (racemic) [(R)-19, (R)-3-amino-2^1-methyl-3-(1-methyl-1H-imidazol-5-yl)-2^2-oxo-2^1,2^2-dihydro-5-oxa-2(4,6)-quinolina-1,4(1,3)-dibenzenacyclohexaphane-4^4-carbonitrile] | > 100 nM
[2H]C([2H])([2H])n1c(=O)cc2c3cc(ccc31)[C@](N)(c1cncn1C)c1ccc(C#N)c(c1)OCc1cccc-2c1 (racemic) [(R)-20, (R)-3-amino-2^1-(methyl-d3)-3-(1-methyl-1H-imidazol-5-yl)-2^2-oxo-2^1,2^2-dihydro-5-oxa-2(4,6)-quinolina-1,4(1,3)-dibenzenacyclohexaphane-4^4-carbonitrile] | > 100 nM
Cn1cncc1[C@]1(N)c2ccc(C#N)c(c2)OCc2cccc(c2)-c2cc(C#N)nc3ccc1cc23 (racemic) [(R)-21, (R)-3-amino-3-(1-methyl-1H-imidazol-5-yl)-5-oxa-2(4,6)-quinolina-1,4(1,3)-dibenzenacyclohexaphane-2^2,4^4-dicarbonitrile] | > 100 nM
Cn1cncc1[C@]1(O)c2ccc(Cl)c(c2)OCCc2cccc(c2)-c2cc(=O)[nH]c3ccc1cc23 (racemic) [(R)-25, (R)-4^4-chloro-3-hydroxy-3-(1-methyl-1H-imidazol-5-yl)-2^1,2^2-dihydro-5-oxa-2(4,6)-quinolina-1,4(1,3)-dibenzenacycloheptaphan-2^2-one] | > 100 nM
Cn1cncc1[C@]1(N)c2ccc(Cl)c(c2)OCCc2cccc(c2)-c2cc(=O)n(C)c3ccc1cc23 (racemic) [(R)-27, (R)-3-amino-4^4-chloro-2^1-methyl-3-(1-methyl-1H-imidazol-5-yl)-2^1,2^2-dihydro-5-oxa-2(4,6)-quinolina-1,4(1,3)-dibenzenacycloheptaphan-2^2-one] | > 100 nM
[2H]C([2H])([2H])n1c(=O)cc2c3cc(ccc31)[C@](O)(c1cncn1C)c1ccc(Cl)c(c1)OCCc1cccc-2c1 (racemic) [(R)-28, (R)-4^4-chloro-3-hydroxy-2^1-(methyl-d3)-3-(1-methyl-1H-imidazol-5-yl)-2^1,2^2-dihydro-5-oxa-2(4,6)-quinolina-1,4(1,3)-dibenzenacycloheptaphan-2^2-one] | > 100 nM
Cn1cncc1[C@]1(O)c2ccc(Cl)c(c2)OCCc2cccc(c2)-c2cc(=O)n(C3CC3)c3ccc1cc23 (racemic) [(R)-29, (R)-4^4-chloro-2^1-cyclopropyl-3-hydroxy-3-(1-methyl-1H-imidazol-5-yl)-2^1,2^2-dihydro-5-oxa-2(4,6)-quinolina-1,4(1,3)-dibenzenacycloheptaphan-2^2-one] | > 100 nM
Cn1cncc1[C@]1(N)c2ccc(Cl)c(c2)OCCc2cccc(c2)-c2cc(=O)n(C3CC3)c3ccc1cc23 (racemic) [(R)-30, (R)-3-amino-4^4-chloro-2^1-cyclopropyl-3-(1-methyl-1H-imidazol-5-yl)-2^1,2^2-dihydro-5-oxa-2(4,6)-quinolina-1,4(1,3)-dibenzenacycloheptaphan-2^2-one] | > 100 nM
[2H]C([2H])([2H])n1c(=O)cc2c3cc(ccc31)[C@](N)(c1nncn1C)c1ccc(Cl)c(c1)OCCc1cccc-2c1 (racemic) [(R)-34, (R)-3-amino-4^4-chloro-2^1-(methyl-d3)-3-(4-methyl-4H-1,2,4-triazol-3-yl)-2^1,2^2_ dihydro-5-oxa-2(4,6)-quinolina-1,4(1,3)-dibenzenacycloheptaphan-2^2-one] | > 100 nM
Cn1cnnc1[C@]1(N)c2ccc(Cl)c(c2)OCCc2cccc(c2)-c2cc(=O)n(C3CC3)c3ccc1cc23 (racemic) [(R)-35, (R)-3-amino-4^4-chloro-2^1-cyclopropyl-3-(4-methyl-4H-1,2,4-triazol-3-yl)-2^1,2^2-dihydro-5-oxa-2(4,6)-quinolina-1,4(1,3)-dibenzenacycloheptaphan-2^2-one] | > 100 nM
Cn1cncc1[C@]1(O)c2ccc(C#N)c(c2)OCCc2cccc(c2)-c2cc(=O)n(C)c3ccc1cc23 (racemic) [(R)-36, (R)-3-hydroxy-2^1-methyl-3-(1-methyl-1H-imidazol-5-yl)-2^2-oxo-2^1,2^2-dihydro-5-oxa-2(4,6)-quinolina-1,4(1,3)-dibenzenacycloheptaphane-4^4-carbonitrile] | > 100 nM
Cn1cncc1[C@]1(N)c2ccc(C#N)c(c2)OCCc2cccc(c2)-c2cc(=O)n(C)c3ccc1cc23 (racemic) [(R)-37, (R)-3-amino-2^1-methyl-3-(1-methyl-1H-imidazol-5-yl)-2^2-oxo-2^1,2^2-dihydro-5-oxa-2(4,6)-quinolina-1,4(1,3)-dibenzenacycloheptaphane-4^4-carbonitrile] | > 100 nM
Cn1cnnc1[C@]1(N)c2ccc(C#N)c(c2)OCCc2cccc(c2)-c2cc(=O)n(C)c3ccc1cc23 (racemic) [(R)-39, (R)-3-amino-21-methyl-3-(4-methyl-4H-1,2,4-triazol-3-yl)-2^2-oxo-2^1,2^2-dihydro-5-oxa-2(4,6)-quinolina-1,4(1,3)-dibenzenacycloheptaphane-4^4-carbonitrile] | > 100 nM
Cn1cncc1[C@]1(N)c2ccc(Cl)c(c2)COc2cccc(c2)-c2cc(=O)n(C)c3ccc1cc23 (racemic) [(R)-46, (R)-3-amino-4^4-chloro-2^1-methyl-3-(1-methyl-1H-imidazol-5-yl)-2^1,2^2-dihydro-6-oxa-2(4,6)-quinolina-1,4(1,3)-dibenzenacyclohexaphan-2^2-one] | > 100 nM
[2H]C([2H])([2H])n1c(=O)cc2c3cc(ccc31)[C@](N)(c1cncn1C)c1ccc(Cl)c(c1)COc1cccc-2c1 (racemic) [(R)-47, (R)-3-amino-4^4-chloro-2^1-(methyl-d3)-3-(1-methyl-1H-imidazol-5-yl)-2^1,2^2-dihydro-6-oxa-2(4,6)-quinolina-1,4(1,3)-dibenzenacyclohexaphan-2^2-one] | > 100 nM
Cn1cncc1[C@]1(N)c2ccc(Cl)c(c2)COc2cccc(c2)-c2cc(C#N)nc3ccc1cc23 (racemic) [(R)-48, (R)-3-amino-4^4-chloro-3-(1-methyl-1H-imidazol-5-yl)-6-oxa-2(4,6)-quinolina-1,4(1,3)-dibenzenacyclohexaphane-2^2-carbonitrile] | 10 to 100 nM
Cn1cnnc1[C@]1(N)c2ccc(Cl)c(c2)COc2cccc(c2)-c2cc(=O)n(C)c3ccc1cc23 (racemic) [(R)-51, (R)-3-amino-4^4-chloro-2^1-methyl-3-(4-methyl-4H-1,2,4-triazol-3-yl)-2^1,2^2-dihydro-6-oxa-2(4,6)-quinolina-1,4(1,3)-dibenzenacyclohexaphan-2^2-one] | > 100 nM
[2H]C([2H])([2H])n1c(=O)cc2c3cc(ccc31)[C@](O)(c1cncn1C)c1ccc(C#N)c(c1)COc1cccc-2c1 (racemic) [(R)-55, (R)-3-hydroxy-21-(methyl-d3)-3-(1-methyl-1H-imidazol-5-yl)-2^2-oxo-2^1,2^2-dihydro-6-oxa-2(4,6)-quinolina-1,4(1,3)-dibenzenacyclohexaphane-4^4-carbonitrile] | > 100 nM
